From US20250186634A1, “METHODS OF TREATING SMALL CELL LUNG CANCER” (Evergreen Discovery, LLC., priority 2023, published 2025)

Columns and labels:
CCK2R [1] = target: T1, CCK2R (Rattus norvegicus, UniProt P30553); test: Small molecule blocking of PP-F11-FITC fluorescent signal in AR42J cells; assay type: cell-based; conditions: 100 nM PP-F11-FITC, antagonist at 50× the concentration of PP-F11-FITC, FIG. 1A
T1 construct: rat pancreatic AR42J cells, which are known to express CCK2R; endogenous in cells; host or cells: AR42J rat pancreatic cancer cell line
T1 sequence (P30553 1-452): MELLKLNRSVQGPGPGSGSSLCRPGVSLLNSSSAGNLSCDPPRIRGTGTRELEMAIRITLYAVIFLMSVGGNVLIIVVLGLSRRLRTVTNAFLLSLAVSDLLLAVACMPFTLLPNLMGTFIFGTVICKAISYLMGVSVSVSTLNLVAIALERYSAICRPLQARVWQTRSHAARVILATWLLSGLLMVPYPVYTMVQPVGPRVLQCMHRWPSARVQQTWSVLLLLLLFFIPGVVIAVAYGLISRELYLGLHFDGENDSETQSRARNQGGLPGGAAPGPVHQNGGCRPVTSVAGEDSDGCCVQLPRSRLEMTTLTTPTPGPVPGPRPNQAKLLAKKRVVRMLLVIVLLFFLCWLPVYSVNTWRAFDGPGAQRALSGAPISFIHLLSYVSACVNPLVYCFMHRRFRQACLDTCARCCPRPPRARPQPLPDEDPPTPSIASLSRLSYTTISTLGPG
Method: Small molecule antagonism of PP-F11 in AR42J and Panc1 cell lines was evaluated by measuring the intensity of a fluorescent (“FL”) signal of FL tagged PP-F11 in the presence or absence of small molecule inhibitors.
Each blocking agent was added in a 50× excess dose concentration to saturate available receptors.
FIG. 1A depicts small molecule blocking experiments performed in rat pancreatic AR42J cells, which are known to express CCK2R. 100 nM of a fluorescently labeled version of PP-F11 (PP-F11-FITC) was added to cell culture in the absence of or the presence of various small molecule CCK2 receptor antagonists at 50× the concentration of fluorescently labeled PP-F11. To determine blocking of PP-F11, the fluorescent intensity of fluorescently labeled PP-F11 was measured in each experiment.

CCK2R [2] = target: T1, CCK2R; test: Uptake of 177Lu-EVG321 by AR42J cells pre-treated with blocking agent (gamma counting); assay type: cell-based; conditions: 2 mM blocking agent (100× excess dose), pre-treated 1 hour, 200 fmols 177Lu-EVG321 per well, two-tailed t-test, FIG. 3A-C
Method: AR42J rat pancreatic cell line were used as they express the CCK2 receptor. The AR42J rat pancreatic cancer cell line was cultured in F-12K medium from ATCC with a final concentration of FBS of 20% (v/v). Medium was changed every 2-3 days and a sub-cultivation ratio of 1:3 was used to split the cells. […] 1×10^6AR42J cells were seeded per well in a 6 well plate in 2 mL of media (DMEM: F12+10% Fetal Bovine Serum (FBS)). Cells were stored at 37° C. in an incubator starting at time 0 for 24-48 hours (depending on cell adherence). On the day of experiment, 1 hour before adding the blocking agent, the medium was changed and replaced with 2 mL of fresh media, and incubated at 37° C. degrees for 1 hour. Once the 1-hour incubation was complete, 4 μL of blocking agent was added to each well to provide a final concentration of 2 mM (i.e., 100 times more concentrated than the radioactive molecule). The plate was gently shaken and incubated at 37° C. for 1 hour. […] Samples were then analyzed using a Hidex Gamma counter to measure counts from each tube (gamma peaks of ^177Lu at 113 keV and 208 keV, 5 minutes per tube counting). […] Radioactive uptake was measured as a fraction of the added radiation at time 0 and used to calculate relative binding in counts per minute (CPM). […]

| Structure (SMILES) | fluorescent signal of PP-F11-FITC compared to experiment A (PP-F11-FITC only); decrease indicates blocking of PP-F11 binding (CCK2R [1]) | specific uptake of 177Lu-EVG321 (relative uptake, CPM) versus cells without blocking agent (CCK2R [2]) |
| --- | --- | --- |
| CSCC[C@H](NC(=O)[C@H](Cc1c[nH]c2ccccc12)NC(=O)CNC(=O)[C@H](Cc1ccc(O)cc1)NC(=O)[C@H](C)NC(=O)[C@@H](CCC(=O)O)NC(=O)[C@@H](CCC(=O)O)NC(=O)[C@@H](CCC(=O)O)NC(=O)[C@@H](CCC(=O)O)NC(=O)[C@@H](CCC(=O)O)NC(=O)[C@H](N)CCC(=O)O)C(=O)N[C@@H](CC(=O)O)C(=O)N[C@@H](Cc1ccccc1)C(N)=O [PP-F11] | decrease in fluorescent signal | – |
| CCCN(CCC)C(=O)C(CCC(=O)O)NC(=O)c1ccccc1 (stereo not shown) [proglumide, 4-benzamido-5-(dipropylamino)-5-oxopentanoic acid] | – | did not show as drastic and statistically significant reduction of uptake |
| CNc1cccc(NC(=O)N[C@@H]2N=C(c3ccccn3)c3ccccc3N(CC(=O)C(C)(C)C)C2=O)c1 [sograzepide, (R)-1-(1-(3,3-dimethyl-2-oxobutyl)-2-oxo-5-(pyridin-2-yl)-2,3-dihydro-1H-benzo[e][1,4]diazepin-3-yl)-3-(3-(methylamino)phenyl) urea] | decrease in fluorescent signal | significant decrease in the specific uptake |
